Calls of active or inactive are those of the source. The calls are words filed in the database; no cut-off is given here.

Data set [1] deals with A549. The data set can be described thus: Drug uptake in human A549 cells assessed as increase in fluorescence intensity at 1 uM after 24 hrs by fluorescence analysis relative to control. It counts as ADME, cell-based. As to conditions: a549, 24 h.
Data set [2] relates to A549. The data set can be described thus: Drug uptake in human A549 cells assessed as increase in fluorescence intensity at 1 uM after 2 hrs by fluorescence analysis using fluorescein labelled compound relative to oligonucleotide treated control. It counts as ADME, cell-based. The following applies: a549, 2 h.
The subject of data set [3] is A549. The experiment in a line: Drug uptake in human A549 cells assessed as increase in fluorescence intensity at 1 uM after 24 hrs by fluorescence analysis using fluorescein labelled compound relative to oligonucleotide treated control. It counts as ADME, cell-based. As to conditions: a549, 24 h.
Data set [4] concerns A549. The experiment in a line: Drug uptake in human A549 cells assessed as increase in fluorescence intensity at 1 uM after 8 hrs by fluorescence analysis using fluorescein labelled compound relative to oligonucleotide treated control. It counts as ADME, cell-based. As to conditions: a549, 8 h.
Data set [5] relates to A549. The data set can be described thus: Drug uptake in human A549 cells after 24 hrs by confocal laser-scanning microscopy. It counts as ADME, cell-based. As to conditions: a549, 24 h.
Data set [6] has as its system A549. The data set can be described thus: Cytotoxicity against human A549 cells assessed as cytoplasmic LDH release at 5 uM after 2 to 24 hrs by spectrophotometry. It counts as cell-based. The following applies: a549, 5 µM.
For data set [7], the system named is A549. The experiment in a line: Antisense activity in human A549 cells assessed as down regulation of p53 protein at 1 uM incubated for 8 hrs in serum-free medium followed by 24 hrs incubation in serum-containing medium by Western blotting analysis. It counts as functional, cell-based.
The test system of data set [8] is A549. The experiment in a line: Antisense activity in human A549 cells assessed as down regulation of p53 protein at 5 uM incubated for 8 hrs in serum-free medium followed by 24 hrs incubation in serum-containing medium by Western blotting analysis. It counts as functional.
Data set [9] deals with A549. The experiment in a line: Drug uptake in human A549 cells at 1 to 4 uM by confocal laser-scanning microscopy. It counts as ADME, cell-based. The following applies: a549, 4 µM.

With `CC[C@H](C)[C@H](NC(=O)[C@H](CC(N)=O)NC(=O)C(C)(C)NC(C)=O)C(=O)N[C@H](C(=O)NC(C)(C)C(=O)N1CCC[C@H]1C(=O)N[C@@H](CC(C)C)C(=O)N[C@@H](CC(C)C)C(=O)NC(C)(C)C(=O)N1CCC[C@H]1C(=O)N[C@H](C(=O)N[C@@H](CSC1CC(=O)N(CCCCCC(=O)NCCCCCCOP(=O)(O)OC[C@H]2O[C@@H](n3cnc4c(=O)[nH]c(N)nc43)C[C@@H]2OP(O)(=S)OC[C@H]2O[C@@H](n3cnc4c(=O)[nH]c(N)nc43)C[C@@H]2OP(O)(=S)OC[C@H]2O[C@@H](n3cnc4c(N)ncnc43)C[C@@H]2OP(O)(=S)OC[C@H]2O[C@@H](n3cnc4c(=O)[nH]c(N)nc43)C[C@@H]2OP(O)(=S)OC[C@H]2O[C@@H](n3ccc(N)nc3=O)C[C@@H]2OP(O)(=S)OC[C@H]2O[C@@H](n3ccc(N)nc3=O)C[C@@H]2OP(O)(=S)OC[C@H]2O[C@@H](n3cnc4c(N)ncnc43)C[C@@H]2OP(O)(=S)OC[C@H]2O[C@@H](n3cnc4c(=O)[nH]c(N)nc43)C[C@@H]2OP(O)(=S)OC[C@H]2O[C@@H](n3cnc4c(=O)[nH]c(N)nc43)C[C@@H]2OP(O)(=S)OC[C@H]2O[C@@H](n3cnc4c(=O)[nH]c(N)nc43)C[C@@H]2OP(O)(=S)OC[C@H]2O[C@@H](n3cnc4c(=O)[nH]c(N)nc43)C[C@@H]2OP(O)(=S)OC[C@H]2O[C@@H](n3cnc4c(=O)[nH]c(N)nc43)C[C@@H]2OP(O)(=S)OC[C@H]2O[C@@H](n3cnc4c(=O)[nH]c(N)nc43)C[C@@H]2OP(O)(=S)OC[C@H]2O[C@@H](n3cnc4c(N)ncnc43)C[C@@H]2OP(O)(=S)OC[C@H]2O[C@@H](n3cnc4c(=O)[nH]c(N)nc43)C[C@@H]2OP(O)(=S)OC[C@H]2O[C@@H](n3ccc(N)nc3=O)C[C@@H]2OP(O)(=S)OC[C@H]2O[C@@H](n3cnc4c(N)ncnc43)C[C@@H]2OP(O)(=S)OC[C@H]2O[C@@H](n3cnc4c(=O)[nH]c(N)nc43)C[C@@H]2OP(O)(=S)OC[C@H]2O[C@@H](n3cnc4c(=O)[nH]c(N)nc43)C[C@@H]2OP(O)(=S)OC[C@H]2O[C@@H](n3cnc4c(=O)[nH]c(N)nc43)C[C@@H]2O)C1=O)C(N)=O)[C@@H](C)CC)[C@@H](C)CC` (some centres undefined), the Drug uptake entry with A549 [1] is on record as “Not Active”.
For the compound `CC[C@H](C)[C@H](NC(=O)[C@H](CC(N)=O)NC(=O)C(C)(C)NC(C)=O)C(=O)N[C@H](C(=O)NC(C)(C)C(=O)N1CCC[C@H]1C(=O)N[C@@H](CC(C)C)C(=O)N[C@@H](CC(C)C)C(=O)NC(C)(C)C(=O)N1CCC[C@H]1C(=O)N[C@H](C(=O)N[C@@H](CSC1CC(=O)N(CCCCCC(=O)NCCCCCCOP(=O)(O)OC[C@H]2O[C@@H](n3ccc(N)nc3=O)C[C@@H]2OP(O)(=S)OC[C@H]2O[C@@H](n3ccc(N)nc3=O)C[C@@H]2OP(O)(=S)OC[C@H]2O[C@@H](n3ccc(N)nc3=O)C[C@@H]2OP(O)(=S)OC[C@H]2O[C@@H](n3cc(C)c(=O)[nH]c3=O)C[C@@H]2OP(O)(=S)OC[C@H]2O[C@@H](n3cnc4c(=O)[nH]c(N)nc43)C[C@@H]2OP(O)(=S)OC[C@H]2O[C@@H](n3ccc(N)nc3=O)C[C@@H]2OP(O)(=S)OC[C@H]2O[C@@H](n3cc(C)c(=O)[nH]c3=O)C[C@@H]2OP(O)(=S)OC[C@H]2O[C@@H](n3ccc(N)nc3=O)C[C@@H]2OP(O)(=S)OC[C@H]2O[C@@H](n3ccc(N)nc3=O)C[C@@H]2OP(O)(=S)OC[C@H]2O[C@@H](n3ccc(N)nc3=O)C[C@@H]2OP(O)(=S)OC[C@H]2O[C@@H](n3ccc(N)nc3=O)C[C@@H]2OP(O)(=S)OC[C@H]2O[C@@H](n3ccc(N)nc3=O)C[C@@H]2OP(O)(=S)OC[C@H]2O[C@@H](n3ccc(N)nc3=O)C[C@@H]2OP(O)(=S)OC[C@H]2O[C@@H](n3cc(C)c(=O)[nH]c3=O)C[C@@H]2OP(O)(=S)OC[C@H]2O[C@@H](n3cnc4c(=O)[nH]c(N)nc43)C[C@@H]2OP(O)(=S)OC[C@H]2O[C@@H](n3cnc4c(=O)[nH]c(N)nc43)C[C@@H]2OP(O)(=S)OC[C@H]2O[C@@H](n3ccc(N)nc3=O)C[C@@H]2OP(O)(=S)OC[C@H]2O[C@@H](n3cc(C)c(=O)[nH]c3=O)C[C@@H]2OP(O)(=S)OC[C@H]2O[C@@H](n3ccc(N)nc3=O)C[C@@H]2OP(O)(=S)OC[C@H]2O[C@@H](n3ccc(N)nc3=O)C[C@@H]2O)C1=O)C(N)=O)[C@@H](C)CC)[C@@H](C)CC` (some centres undefined), the “fold change (FC)” value in the data set on A549 [2] came to 4; in the data set with A549 [3], 14; in the data set with A549 [4] it was 7. The values for the Drug uptake result in the data set on A549 [5] and with A549 [9] (TDE = time-dependent effect) were “Dose-dependent effect” and “tde”, respectively. The figures for the Activity entry in the data set on A549 [6] and in the data set with A549 [8] were “Non-toxic” and 50%, respectively. Moreover, in the data set on A549 [7], the outcome was inactive.
For `Nc1ccn([C@H]2C[C@H](OP(O)(=S)OC[C@H]3O[C@@H](n4cnc5c(N)ncnc54)C[C@@H]3OP(O)(=S)OC[C@H]3O[C@@H](n4cnc5c(=O)[nH]c(N)nc54)C[C@@H]3OP(O)(=S)OC[C@H]3O[C@@H](n4cnc5c(=O)[nH]c(N)nc54)C[C@@H]3OP(O)(=S)OC[C@H]3O[C@@H](n4cnc5c(=O)[nH]c(N)nc54)C[C@@H]3OP(O)(=S)OC[C@H]3O[C@@H](n4cnc5c(=O)[nH]c(N)nc54)C[C@@H]3OP(O)(=S)OC[C@H]3O[C@@H](n4cnc5c(=O)[nH]c(N)nc54)C[C@@H]3OP(O)(=S)OC[C@H]3O[C@@H](n4cnc5c(=O)[nH]c(N)nc54)C[C@@H]3OP(O)(=S)OC[C@H]3O[C@@H](n4cnc5c(N)ncnc54)C[C@@H]3OP(O)(=S)OC[C@H]3O[C@@H](n4cnc5c(=O)[nH]c(N)nc54)C[C@@H]3OP(O)(=S)OC[C@H]3O[C@@H](n4ccc(N)nc4=O)C[C@@H]3OP(O)(=S)OC[C@H]3O[C@@H](n4cnc5c(N)ncnc54)C[C@@H]3OP(O)(=S)OC[C@H]3O[C@@H](n4cnc5c(=O)[nH]c(N)nc54)C[C@@H]3OP(O)(=S)OC[C@H]3O[C@@H](n4cnc5c(=O)[nH]c(N)nc54)C[C@@H]3OP(O)(=S)OC[C@H]3O[C@@H](n4cnc5c(=O)[nH]c(N)nc54)C[C@@H]3O)[C@@H](COP(O)(=S)O[C@H]3C[C@H](n4ccc(N)nc4=O)O[C@@H]3COP(O)(=S)O[C@H]3C[C@H](n4cnc5c(=O)[nH]c(N)nc54)O[C@@H]3COP(O)(=S)O[C@H]3C[C@H](n4cnc5c(N)ncnc54)O[C@@H]3COP(O)(=S)O[C@H]3C[C@H](n4cnc5c(=O)[nH]c(N)nc54)O[C@@H]3COP(O)(=S)O[C@H]3C[C@H](n4cnc5c(=O)[nH]c(N)nc54)O[C@@H]3CO)O2)c(=O)n1` (some centres undefined), the Drug uptake entry in the data set on A549 [5] and with A549 [9] was “Not Active” in each case.
Take `CC[C@H](C)[C@H](NC(=O)[C@H](CC(N)=O)NC(=O)C(C)(C)NC(C)=O)C(=O)N[C@H](C(=O)NC(C)(C)C(=O)N1CCC[C@H]1C(=O)N[C@@H](CC(C)C)C(=O)N[C@@H](CC(C)C)C(=O)NC(C)(C)C(=O)N1CCC[C@H]1C(=O)N[C@H](C(=O)N[C@@H](CSSCCCCCCOP(=O)(O)OC[C@H]1O[C@@H](n2ccc(N)nc2=O)C[C@@H]1OP(O)(=S)OC[C@H]1O[C@@H](n2ccc(N)nc2=O)C[C@@H]1OP(O)(=S)OC[C@H]1O[C@@H](n2ccc(N)nc2=O)C[C@@H]1OP(O)(=S)OC[C@H]1O[C@@H](n2cc(C)c(=O)[nH]c2=O)C[C@@H]1OP(O)(=S)OC[C@H]1O[C@@H](n2cnc3c(=O)[nH]c(N)nc32)C[C@@H]1OP(O)(=S)OC[C@H]1O[C@@H](n2ccc(N)nc2=O)C[C@@H]1OP(O)(=S)OC[C@H]1O[C@@H](n2cc(C)c(=O)[nH]c2=O)C[C@@H]1OP(O)(=S)OC[C@H]1O[C@@H](n2ccc(N)nc2=O)C[C@@H]1OP(O)(=S)OC[C@H]1O[C@@H](n2ccc(N)nc2=O)C[C@@H]1OP(O)(=S)OC[C@H]1O[C@@H](n2ccc(N)nc2=O)C[C@@H]1OP(O)(=S)OC[C@H]1O[C@@H](n2ccc(N)nc2=O)C[C@@H]1OP(O)(=S)OC[C@H]1O[C@@H](n2ccc(N)nc2=O)C[C@@H]1OP(O)(=S)OC[C@H]1O[C@@H](n2ccc(N)nc2=O)C[C@@H]1OP(O)(=S)OC[C@H]1O[C@@H](n2cc(C)c(=O)[nH]c2=O)C[C@@H]1OP(O)(=S)OC[C@H]1O[C@@H](n2cnc3c(=O)[nH]c(N)nc32)C[C@@H]1OP(O)(=S)OC[C@H]1O[C@@H](n2cnc3c(=O)[nH]c(N)nc32)C[C@@H]1OP(O)(=S)OC[C@H]1O[C@@H](n2ccc(N)nc2=O)C[C@@H]1OP(O)(=S)OC[C@H]1O[C@@H](n2cc(C)c(=O)[nH]c2=O)C[C@@H]1OP(O)(=S)OC[C@H]1O[C@@H](n2ccc(N)nc2=O)C[C@@H]1OP(O)(=S)OC[C@H]1O[C@@H](n2ccc(N)nc2=O)C[C@@H]1O)C(N)=O)[C@@H](C)CC)[C@@H](C)CC` (some centres undefined): the Activity entry is reported as “Non-toxic” in the data set with A549 [6] and 20% in the data set on A549 [8]. Moreover, in the data set on A549 [7], the outcome was inactive.
